PubChem BioAssay AID200 (DTP/NCI, 2004)
Values joined by “and” are separate entries in the source; they are usually repeats but may differ in a detail not shown here. Identical values can stand only once. Toxic doses and inconclusive results are not listed. Where a SMILES comes first, the peptide text is derived from it.

Test system: B6C3F1 mice, B16 melanoma ip, median survival T/C
Test: NCI In Vivo Anticancer Drug Screen. Data for tumor model B16 Melanoma (intraperitoneal) in B6C3F1 mice
Conditions: endpoint: median survival time, higher = longer survival
Method in brief: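 Readout: survival or tumor size in treated mice relative to vehicle controls (T/C). Model uses transplantable tumors grown in mice.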

[1] = dose: 12.5 mg/kg/injection, schedule: Q01DX009 (ip), vehicle: saline
[2] = dose: 50.0 mg/kg/injection, schedule: Q01DX009 (ip), vehicle: saline with Tween-80
[3] = dose: 100.0 mg/kg/injection, schedule: Q01DX009 (ip), vehicle: saline with Tween-80
[4] = dose: 50.0 mg/kg/injection, schedule: Q01DX009 (ip), vehicle: saline
[5] = dose: 12.5 mg/kg/injection, schedule: Q01DX009 (ip), vehicle: saline with Tween-80
[6] = dose: 25.0 mg/kg/injection, schedule: Q01DX009 (ip), vehicle: saline with Tween-80
[7] = dose: 6.25 mg/kg/injection, schedule: Q01DX009 (ip), vehicle: saline with Tween-80
[8] = dose: 200.0 mg/kg/injection, schedule: Q01DX009 (ip), vehicle: saline with Tween-80
[9] = dose: 25.0 mg/kg/injection, schedule: Q01DX009 (ip), vehicle: saline
[10] = dose: 100.0 mg/kg/injection, schedule: Q01DX009 (ip), vehicle: saline
[11] = dose: 100.0 mg/kg/injection, schedule: Q01DX009 (ip), vehicle: suspension in saline
[12] = dose: 200.0 mg/kg/injection, schedule: Q01DX009 (ip), vehicle: saline
[13] = dose: 400.0 mg/kg/injection, schedule: Q01DX009 (ip), vehicle: saline

O=NNc1ccccn1
T/C (dose: 1.56 mg/kg/injection, schedule: Q01DX009 (ip), vehicle: water): 120 % of control and 96 % of control | T/C (dose: 3.12 mg/kg/injection, schedule: Q01DX009 (ip), vehicle: water): 116 % of control and 120 % of control and 124 % of control

CCOC(=O)N1CCN(CCCCCCOc2ccc(C3CCCCC3)cc2)CC1
T/C (dose: 1.56 mg/kg/injection, schedule: Q01DX009 (ip), vehicle: saline): 110 % of control | T/C (dose: 3.13 mg/kg/injection, schedule: Q01DX009 (ip), vehicle: saline): 93 % of control | T/C (dose: 6.25 mg/kg/injection, schedule: Q01DX009 (ip), vehicle: saline): 101 % of control | T/C [1]: 97 % of control and 105 % of control

COc1ccc(C(=O)CC2CCCC(CC(=O)c3ccc(OC)cc3)N2C)cc1 (stereo not given)
T/C [2]: 103 % of control | T/C [3]: 101 % of control

O=P1(N(CCCl)CCCl)NCCCO1 (stereo not given)
T/C [1]: 121 % of control | T/C (dose: 18.75 mg/kg/injection, schedule: Q01DX005 (ip), vehicle: saline): 104 % of control | T/C (dose: 18.75 mg/kg/injection, schedule: Q01DX005 (iv), vehicle: saline): 111 % of control | T/C (dose: 25.0 mg/kg/injection, schedule: Q01DX001 (ip), vehicle: saline): 108 % of control and 103 % of control | T/C (dose: 37.5 mg/kg/injection, schedule: Q01DX001 (ip), vehicle: saline): 106 % of control | T/C (dose: 37.5 mg/kg/injection, schedule: Q01DX001 (iv), vehicle: saline): 104 % of control | T/C (dose: 37.5 mg/kg/injection, schedule: Q01DX005 (ip), vehicle: saline): 121 % of control | T/C (dose: 50.0 mg/kg/injection, schedule: Q01DX001 (ip), vehicle: saline): 111 % of control and 103 % of control | T/C [4]: 154 % of control | T/C (dose: 75.0 mg/kg/injection, schedule: Q01DX001 (ip), vehicle: saline): 116 % of control | T/C (dose: 75.0 mg/kg/injection, schedule: Q01DX001 (iv), vehicle: saline): 114 % of control | T/C (dose: 75.0 mg/kg/injection, schedule: Q01DX005 (iv), vehicle: saline): 166 % of control | T/C (dose: 150.0 mg/kg/injection, schedule: Q01DX005 (ip), vehicle: saline): 190 % of control | T/C (dose: 200.0 mg/kg/injection, schedule: Q01DX001 (ip), vehicle: saline): 157 % of control and 161 % of control | T/C (dose: 300.0 mg/kg/injection, schedule: Q01DX001 (ip), vehicle: saline): 185 % of control | T/C (dose: 300.0 mg/kg/injection, schedule: Q01DX001 (iv), vehicle: saline): 166 % of control

CCCC(=O)c1ccco1
T/C [5]: 98 % of control | T/C [6]: 109 % of control | T/C [2]: 100 % of control

COC(=O)C(Cc1ccc(O)cc1)NC(=O)C(Cc1ccccc1)NC(C)=O (stereo not drawn) (Ac-Phe-Tyr-OMe; configuration not given here)
T/C (dose: 25.0 mg/kg/injection, schedule: Q01DX009 (ip), vehicle: Klucel (hydroxypropylcellulose) (HPC)): 92 % of control | T/C (dose: 50.0 mg/kg/injection, schedule: Q01DX009 (ip), vehicle: Klucel (hydroxypropylcellulose) (HPC)): 92 % of control | T/C (dose: 100.0 mg/kg/injection, schedule: Q01DX009 (ip), vehicle: Klucel (hydroxypropylcellulose) (HPC)): 92 % of control | T/C (dose: 200.0 mg/kg/injection, schedule: Q01DX009 (ip), vehicle: Klucel (hydroxypropylcellulose) (HPC)): 86 % of control

CCC1CN2CCC3(C(=O)Nc4ccccc43)C2CC1/C(=C/OC)C(=O)OC (stereo not given)
T/C [7]: 90 % of control | T/C [5]: 108 % of control | T/C [6]: 93 % of control | T/C [2]: 93 % of control

CN1C(=O)C(=Cc2ccc(O)cc2)C(=O)N(C)C1=O
T/C [5]: 97 % of control | T/C [6]: 99 % of control | T/C [2]: 101 % of control | T/C [3]: 104 % of control | T/C [8]: 94 % of control

Cc1c2ccc3ccccc3c2c[n+]2ccccc12
T/C (dose: 1.25 mg/kg/injection, schedule: Q01DX009 (ip), vehicle: Klucel (hydroxypropylcellulose) (HPC)): 104 % of control | T/C (dose: 2.5 mg/kg/injection, schedule: Q01DX009 (ip), vehicle: Klucel (hydroxypropylcellulose) (HPC)): 100 % of control | T/C (dose: 5.0 mg/kg/injection, schedule: Q01DX009 (ip), vehicle: Klucel (hydroxypropylcellulose) (HPC)): 112 % of control | T/C (dose: 10.0 mg/kg/injection, schedule: Q01DX009 (ip), vehicle: Klucel (hydroxypropylcellulose) (HPC)): 96 % of control | T/C (dose: 20.0 mg/kg/injection, schedule: Q01DX009 (ip), vehicle: Klucel (hydroxypropylcellulose) (HPC)): 100 % of control

COc1cc(C2c3cc4c(cc3[C@@H](OC3OC5CO[C@@H](C)OC5C(O)C3O)[C@H]3COC(=O)C23)OCO4)cc(OC)c1OC (stereo not given in full)
T/C (dose: 21.6 mg/kg/injection, schedule: Q01DX009 (ip), vehicle: suspension in saline): 120 % of control | T/C [9]: 150 % of control | T/C [4]: 160 % of control | T/C (dose: 60.0 mg/kg/injection, schedule: Q01DX009 (ip), vehicle: suspension in saline): 162 % of control | T/C [10]: 193 % of control | T/C [11]: 183 % of control

C/C=C(\C)c1cc(=O)c2c(C)cc3c(c2o1)C(=O)c1c(O)c(C2CC(C)(N(C)C)C(O)C(C)O2)cc(C2CC(N(C)C)C(O)C(C)O2)c1C3=O (stereo not given)
T/C (dose: 31.25 micrograms/kg/injection, schedule: Q01DX009 (ip), vehicle: saline): 111 % of control | T/C (dose: 62.5 micrograms/kg/injection, schedule: Q01DX009 (ip), vehicle: saline): 114 % of control | T/C (dose: 156.25 micrograms/kg/injection, schedule: Q01DX009 (ip), vehicle: saline): 176 % of control | T/C (dose: 1250.0 micrograms/kg/injection, schedule: Q01DX009 (ip), vehicle: saline): 93 % of control

CONc1ccn(C2OC(CO)C(O)C2O)c(=O)n1 (stereo not given)
T/C [1]: 92 % of control and 98 % of control | T/C [9]: 101 % of control and 102 % of control | T/C [4]: 103 % of control and 104 % of control | T/C [10]: 91 % of control and 106 % of control | T/C [12]: 113 % of control and 91 % of control | T/C [13]: 89 % of control and 94 % of control

CC(=S)NC(O)C(=O)c1ccccc1 (stereo not given)
T/C (dose: 12.5 mg/kg/injection, schedule: Q01DX009 (ip), vehicle: distilled water + Tween-80): 104 % of control | T/C [5]: 95 % of control | T/C (dose: 25.0 mg/kg/injection, schedule: Q01DX009 (ip), vehicle: distilled water + Tween-80): 107 % of control | T/C [6]: 94 % of control | T/C (dose: 50.0 mg/kg/injection, schedule: Q01DX009 (ip), vehicle: distilled water + Tween-80): 98 % of control | T/C [2]: 93 % of control | T/C (dose: 100.0 mg/kg/injection, schedule: Q01DX009 (ip), vehicle: distilled water + Tween-80): 113 % of control | T/C [3]: 93 % of control | T/C [8]: 89 % of control

CN1c2ccc3ccccc3c2Sc2ccc3ccccc3c21
T/C [10]: 100 % of control | T/C [12]: 100 % of control | T/C [13]: 118 % of control

Nc1ccc2ccc(O)cc2c1
T/C [6]: 104 % of control | T/C [2]: 97 % of control | T/C [3]: 105 % of control

CNC(=S)C#N
T/C (dose: 12.5 mg/kg/injection, schedule: Q01DX009 (ip), vehicle: saline + Tween-80 + alcohol): 119 % of control | T/C (dose: 25.0 mg/kg/injection, schedule: Q01DX009 (ip), vehicle: saline + Tween-80 + alcohol): 86 % of control

CC(C)(C)OC(=O)N1CCCC1C(=O)N1CCCC1C(=O)Oc1ccccc1 (stereo not given)
T/C [6]: 103 % of control | T/C [2]: 93 % of control | T/C [3]: 100 % of control | T/C [11]: 118 % of control | T/C [8]: 94 % of control | T/C (dose: 200.0 mg/kg/injection, schedule: Q01DX009 (ip), vehicle: suspension in saline): 115 % of control | T/C (dose: 400.0 mg/kg/injection, schedule: Q01DX009 (ip), vehicle: suspension in saline): 104 % of control

CC1(C)OC1CS(=O)c1ccccc1 (stereo not given)
T/C [5]: 96 % of control | T/C [1]: 93 % of control | T/C [6]: 99 % of control | T/C [9]: 98 % of control | T/C [2]: 102 % of control | T/C [4]: 96 % of control | T/C [3]: 95 % of control | T/C [10]: 98 % of control | T/C [8]: 90 % of control | T/C [12]: 98 % of control | T/C (dose: 400.0 mg/kg/injection, schedule: Q01DX009 (ip), vehicle: saline with Tween-80): 89 % of control | T/C [13]: 93 % of control

COc1cc([C@@H]2c3cc4c(cc3[C@H](OC3OC5COC(c6ccccc6)OC5C(O)C3O)[C@H]3COC(=O)[C@H]23)OCO4)cc(OC)c1OC (stereo not given in full)
T/C [7]: 123 % of control | T/C [6]: 154 % of control | T/C [2]: 169 % of control and 177 % of control
